# ChEMBL document CHEMBL4765461, “Why All the Fuss about Oxidative Phosphorylation (OXPHOS)?” (J Med Chem, 2020)
# Legend:
# [1] = Inhibition of mitochondrial complex 1 in human NCI-H460 cells assessed as reduction in oxygen consumption rate by seahorse analysis; assay type: cell-based
# [2] = Inhibition of mitochondrial pyruvate carrier in Wistar rat liver mitochondria assessed as reduction in [1-14C]pyruvate uptake preincubated for 2 mins followed by rotenone and [1-14C]pyruvate addition by scintillation counting method
# [3] = Half life in ICR/CD-1 mouse S9 fraction incubated for 0 to 240 mins in presence of NADPH regenerating system by HPLC/MS analysis; assay type: ADME, subcellular; conditions: time 0-240 min
# GBM = assay: Growth inhibition of patient derived GBM cells incubated for 4 days by Celltiter glo assay; assay type: functional, cell-based; conditions: Homo sapiens, 96 h
# [4] = Half life in mouse plasma incubated up to 1440 mins by mass spectrometric analysis; assay type: ADME, cell-free
# [5] = Growth inhibition of mouse GBM cells incubated for 4 days by Celltiter glo assay; assay type: functional, cell-based; conditions: 96 h
# [6] = target: cAMP and cAMP-inhibited cGMP 3',5'-cyclic phosphodiesterase 10A (Homo sapiens) (UniProt Q9Y233); assay: Inhibition of PDE10A (unknown origin)
# Chain of cAMP and cAMP-inhibited cGMP 3',5'-cyclic phosphodiesterase 10A (Homo sapiens) (Q9Y233 whole entry): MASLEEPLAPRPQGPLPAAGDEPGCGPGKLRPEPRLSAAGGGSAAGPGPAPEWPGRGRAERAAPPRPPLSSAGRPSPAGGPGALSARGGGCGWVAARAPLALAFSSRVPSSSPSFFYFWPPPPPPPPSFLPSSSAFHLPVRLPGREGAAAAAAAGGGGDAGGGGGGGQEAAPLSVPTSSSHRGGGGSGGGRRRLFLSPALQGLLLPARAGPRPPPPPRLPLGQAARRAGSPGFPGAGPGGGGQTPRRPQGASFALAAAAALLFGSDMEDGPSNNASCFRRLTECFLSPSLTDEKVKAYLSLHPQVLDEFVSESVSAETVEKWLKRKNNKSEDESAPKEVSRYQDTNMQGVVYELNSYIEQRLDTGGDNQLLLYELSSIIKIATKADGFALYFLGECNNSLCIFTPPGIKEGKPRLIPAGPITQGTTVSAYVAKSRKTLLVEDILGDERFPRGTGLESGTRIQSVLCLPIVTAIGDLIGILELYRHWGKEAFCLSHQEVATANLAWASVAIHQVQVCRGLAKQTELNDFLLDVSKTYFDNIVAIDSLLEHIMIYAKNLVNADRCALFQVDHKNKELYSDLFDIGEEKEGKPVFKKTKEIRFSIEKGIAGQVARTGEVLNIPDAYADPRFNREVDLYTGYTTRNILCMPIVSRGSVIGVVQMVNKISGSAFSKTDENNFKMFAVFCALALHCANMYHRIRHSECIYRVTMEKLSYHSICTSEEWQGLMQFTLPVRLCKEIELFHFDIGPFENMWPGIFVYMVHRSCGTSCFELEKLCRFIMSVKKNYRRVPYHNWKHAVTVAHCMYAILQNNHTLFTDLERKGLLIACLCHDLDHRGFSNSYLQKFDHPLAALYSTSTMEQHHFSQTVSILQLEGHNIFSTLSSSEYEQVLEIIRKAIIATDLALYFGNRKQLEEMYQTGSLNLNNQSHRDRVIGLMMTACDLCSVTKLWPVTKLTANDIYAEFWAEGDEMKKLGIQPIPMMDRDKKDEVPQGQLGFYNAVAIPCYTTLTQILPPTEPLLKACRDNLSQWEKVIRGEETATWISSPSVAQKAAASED
# [7] = Inhibition of mitochondrial complex 1 in human A549 cells assessed as oxygen consumption rate by seahorse analysis; assay type: cell-based
# [8] = Inhibition of F0F1-ATP synthase in yeast intact mitochondria by LDH/pyruvate kinase coupled enzyme assay; design: species or system Saccharomyces cerevisiae
# [9] = Inhibition of yeast mitochondrial F0F1-ATP synthase by LDH/pyruvate kinase coupled enzyme assay; design: species or system Saccharomyces cerevisiae
# A549 = assay: Antiproliferative activity against human A549 cells by IncuCyte live-cell imaging assay; assay type: functional, cell-based
# [10] = Antiproliferative activity against human H2030-BrM3 cells by IncuCyte live-cell imaging assay; assay type: functional, cell-based
# [11] = Inhibition of mitochondrial complex 1 in Sprague-Dawley rat heart mitochondria by spectrophotometric method
# [12] = Ratio of drug level in ICR mouse brain to plasma at 30 mg/kg, po by LC-MS analysis; assay type: ADME, organism-based; conditions: read-out: BPR
# [13] = Oral bioavailability in ICR mouse at 30 mg/kg; assay type: ADME, organism-based; conditions: in vivo
# [14] = Inhibition of mitochondrial complex1 (unknown origin); design: species or system Homo sapiens
# [15] = Inhibition of mitochondrial complex 1 in human MiaPaCa-2 cells assessed as reduction in oxygen consumption incubated for 24 hrs; assay type: cell-based; conditions: mia paca-2
# [16] = Inhibition of mitochondrial complex 1 in human PC-3 cell mitochondria assessed as reduction in oxygen consumption using glutamate/malate/ADP as substrate by oxygen sensitive fluorescent dye based assay
# [17] = Inhibition of mitochondrial complex 1 in human NCI-H460 cells assessed as reduction in cell proliferation incubated for 48 hrs under galactose containing medium by cell titer glow assay; assay type: cell-based; conditions: NCI-H460, 48 h
# [18] = Half life in CD1 mouse plasma at 10 mg/kg, ip by LC/MS/MS analysis; assay type: ADME, organism-based
# [19] = Cmax in CD1 mouse plasma at 10 mg/kg, ip by LC/MS/MS analysis; assay type: ADME, organism-based; design: route intraperitoneal, dose 10 mg/kg
# [20] = Inhibition of Cytochrome b-c1 complex I304M/R306K double mutant in Rhodobacter capsulatus MT-RBC1
# MCF7 = assay: Inhibition of mammosphere formation in human MCF7 cells incubated for 5 days; assay type: functional, cell-based; conditions: MCF7, 120 h
# [21] = Inhibition of mitochondrial complex 1 in bovine heart mitochondria incubated for 3 hrs and measured up to 30 mins by colorimetric method
smiles,measurement,setting,value
Cc1nc(-c2nc(-c3ccc(OC(F)(F)F)cc3)no2)nn1Cc1cccc(N2CCC(S(C)(=O)=O)CC2)c1,IC50,[1],0.0014 µM
O=C(O)c1nn(Cc2ccc(Cl)cc2Cl)c2ccccc12 [LONIDAMINE],Ki,[2],2.5 µM
CCc1n(CC(=O)O[C@@H]2C[C@H](C)CC[C@H]2C(C)C)c2ccccc2[n+]1C.[Cl-],half-life,[3],3.62 h
same,IC50,GBM,1 µM
same,half-life,[4],0.0667 h
same,IC50,[5],0.15 µM
COc1cc2ccnc(Cc3cccc4ccccc34)c2cc1OC,IC20,[6],13.4 µM
same,IC50,[7],7.2 µM
COC[C@@H](C[C@H]1O[C@@](O)([C@H](O)[C@@H]2C[C@H](OC)[C@@H](O)CC/C=C(C)/C=C/[C@@H](O[C@@H]3O[C@@H](C)[C@H](OC)[C@@H](O)[C@@H]3O)[C@H](C)/C=C(C)/C=C(C)/C=C(\C)C(=O)O2)[C@H](C)[C@@H](O)[C@H]1C)O[C@H]1C[C@](C)(O)[C@@H](O[C@H]2C[C@@H](OC)[C@H](O)[C@@H](C)O2)[C@H](C)O1,Ki,[8],5 µM
same,Ki,[9],4 µM
O=C(NCCCCCCCCCC[P+](c1ccccc1)(c1ccccc1)c1ccccc1)c1nn(Cc2ccc(Cl)cc2Cl)c2ccccc12,IC50,A549,0.69 µM
same,IC50,[10],0.74 µM
Cc1ccc(Sc2cccc3[nH]c4nc(N)nc(N)c4c23)cc1,IC50,[11],9.9 µM
N=C(NC(=N)N1CCCC1)Nc1ccc(OC(F)(F)F)cc1 [LIXUMISTAT],Kp,[12],0.37
same,bioavailability,[13],72.9%
C=C(C)[C@H]1Cc2c(ccc3c2O[C@@H]2COc4cc(OC)c(OC)cc4[C@@H]2C3=O)O1 [ROTENONE],IC50,[14],0.1 µM
CN(C)C(=N)NC(=N)N [METFORMIN],Kp,[12],0.1
same,IC50,[15],1100 µM
same,IC50,A549,208 µM
same,IC50,[10],139 µM
Cc1cc(-c2nc(-c3ccc(OC(F)(F)F)cc3)no2)nn1Cc1ccnc(N2CCN(C3CC3)CC2)c1,IC50,[16],0.01 µM
same,EC50,[17],0.003 µM
CC(C)[C@@H]1CC[C@@H](C)C[C@H]1OC(=O)Cn1c(-c2cccc(C(F)(F)F)c2)[n+](C)c2ccccc21.[I-],half-life,[18],15.2 h
same,half-life,[4],5.1 h
same,Cmax,[19],375 ng/g
O=C1C(O)=C([C@H]2CC[C@H](c3ccc(Cl)cc3)CC2)C(=O)c2ccccc21 [ATOVAQUONE],IC50,[20],0.01 µM
same,IC50,MCF7,1 µM
N=C(N)NC(=N)NCCCCCCCCCC[P+](c1ccccc1)(c1ccccc1)c1ccccc1,IC50,[15],0.4 µM
COc1ccc(Cc2nccc3cc(OC)c(OC)cc23)cc1OC [PAPAVERINE],IC20,[6],0.65 µM
same,IC50,[7],15.4 µM
FC(F)(F)c1ccc(/C=C/c2nc(COc3ccc(CCCCn4ccnn4)cc3)co2)cc1 [MUBRITINIB],IC50,[21],0.051 µM
